Test results taken from BigSolDB 2.1.

O=[N+]([O-])c1cc([N+](=O)[O-])c(Cl)cc1Cl
Conditions | solubility (mole fraction)
in 1,2-dichloroethane, 298.15 K | 0.138
in 1,2-dichloroethane, 303.15 K | 0.156
in 1,2-dichloroethane, 308.15 K | 0.176
in 1,2-dichloroethane, 313.15 K | 0.199
in 1,2-dichloroethane, 318.15 K | 0.224
in 1,2-dichloroethane, 323.15 K | 0.251
in 1,2-dichloroethane, 328.15 K | 0.282
in 1,2-dichloroethane, 333.15 K | 0.316
in DMF, 298.15 K | 0.286
in DMF, 303.15 K | 0.308
in DMF, 308.15 K | 0.329
in DMF, 313.15 K | 0.353
in DMF, 318.15 K | 0.378
in DMF, 323.15 K | 0.406
in DMF, 328.15 K | 0.436
in DMF, 333.15 K | 0.469
in DMSO, 298.15 K | 0.192
in DMSO, 303.15 K | 0.215
in DMSO, 308.15 K | 0.241
in DMSO, 313.15 K | 0.269
in DMSO, 318.15 K | 0.3
in DMSO, 323.15 K | 0.332
in DMSO, 328.15 K | 0.368
in DMSO, 333.15 K | 0.408
in NMP, 298.15 K | 0.362
in NMP, 303.15 K | 0.381
in NMP, 308.15 K | 0.4
in NMP, 313.15 K | 0.421
in NMP, 318.15 K | 0.444
in NMP, 323.15 K | 0.468
in NMP, 328.15 K | 0.495
in NMP, 333.15 K | 0.524
in acetone, 288.15 K | 0.169
in acetone, 293.15 K | 0.187
in acetone, 298.15 K | 0.206
in acetone, 303.15 K | 0.227
in acetone, 308.15 K | 0.249
in acetone, 313.15 K | 0.273
in acetone, 318.15 K | 0.298
in acetone, 323.15 K | 0.326
in acetonitrile, 298.15 K | 0.129
in acetonitrile, 303.15 K | 0.154
in acetonitrile, 308.15 K | 0.183
in acetonitrile, 313.15 K | 0.217
in acetonitrile, 318.15 K | 0.254
in acetonitrile, 323.15 K | 0.296
in acetonitrile, 328.15 K | 0.344
in acetonitrile, 333.15 K | 0.397
in chloroform, 293.15 K | 0.108
in chloroform, 298.15 K | 0.128
in chloroform, 303.15 K | 0.149
in chloroform, 308.15 K | 0.175
in chloroform, 313.15 K | 0.205
in chloroform, 318.15 K | 0.238
in chloroform, 323.15 K | 0.274
in chloroform, 328.15 K | 0.319
in dichloromethane, 278.15 K | 0.0915
in dichloromethane, 283.15 K | 0.106
in dichloromethane, 288.15 K | 0.121
in dichloromethane, 293.15 K | 0.138
in dichloromethane, 298.15 K | 0.158
in dichloromethane, 303.15 K | 0.181
in dichloromethane, 308.15 K | 0.205
in ethanol, 298.15 K | 0.00702
in ethanol, 303.15 K | 0.00858
in ethanol, 308.15 K | 0.0104
in ethanol, 313.15 K | 0.0126
in ethanol, 318.15 K | 0.0156
in ethanol, 323.15 K | 0.0189
in ethanol, 328.15 K | 0.0232
in ethanol, 333.15 K | 0.0282
in ethyl acetate, 298.15 K | 0.17
in ethyl acetate, 303.15 K | 0.189
in ethyl acetate, 308.15 K | 0.207
in ethyl acetate, 313.15 K | 0.228
in ethyl acetate, 318.15 K | 0.251
in ethyl acetate, 323.15 K | 0.277
in ethyl acetate, 328.15 K | 0.306
in ethyl acetate, 333.15 K | 0.336
in isopropanol, 298.15 K | 0.00322
in isopropanol, 303.15 K | 0.00429
in isopropanol, 308.15 K | 0.00581
in isopropanol, 313.15 K | 0.00763
in isopropanol, 318.15 K | 0.01
in isopropanol, 323.15 K | 0.0131
in isopropanol, 328.15 K | 0.0173
in isopropanol, 333.15 K | 0.0223
in methanol, 298.15 K | 0.00929
in methanol, 303.15 K | 0.0112
in methanol, 308.15 K | 0.0135
in methanol, 313.15 K | 0.0163
in methanol, 318.15 K | 0.0197
in methanol, 323.15 K | 0.0236
in methanol, 328.15 K | 0.0284
in methanol, 333.15 K | 0.0341
in n-butanol, 298.15 K | 0.00624
in n-butanol, 303.15 K | 0.00794
in n-butanol, 308.15 K | 0.0101
in n-butanol, 313.15 K | 0.0128
in n-butanol, 318.15 K | 0.016
in n-butanol, 323.15 K | 0.0201
in n-butanol, 328.15 K | 0.025
in n-butanol, 333.15 K | 0.0308
in tetrachloromethane, 298.15 K | 0.0153
in tetrachloromethane, 303.15 K | 0.0207
in tetrachloromethane, 308.15 K | 0.0276
in tetrachloromethane, 313.15 K | 0.0368
in tetrachloromethane, 318.15 K | 0.049
in tetrachloromethane, 323.15 K | 0.0638
in tetrachloromethane, 328.15 K | 0.0835
in tetrachloromethane, 333.15 K | 0.108
in toluene, 298.15 K | 0.201
in toluene, 303.15 K | 0.225
in toluene, 308.15 K | 0.25
in toluene, 313.15 K | 0.277
in toluene, 318.15 K | 0.307
in toluene, 323.15 K | 0.34
in toluene, 328.15 K | 0.374
in toluene, 333.15 K | 0.413
